Reference: article PMC11305387, “AlphaFold accelerated discovery of psychotropic agonists targeting the trace amine–associated receptor 1” (Science Advances, 2024)

What was measured:
5-HT1A receptor = target: T1, 5-HT1A receptor (Homo sapiens, UniProt P08908); assay: PRESTO-TANGO β-arrestin recruitment; type: cell-based; details: panel screen
T1 construct: TANGO fusion module (own knowledge, Kroeze et al.: C-terminal V2 tail, TEV site and tTA); 1000000068; host or cells: HTLA (HEK293-derived)
T1 sequence (P08908 1-422): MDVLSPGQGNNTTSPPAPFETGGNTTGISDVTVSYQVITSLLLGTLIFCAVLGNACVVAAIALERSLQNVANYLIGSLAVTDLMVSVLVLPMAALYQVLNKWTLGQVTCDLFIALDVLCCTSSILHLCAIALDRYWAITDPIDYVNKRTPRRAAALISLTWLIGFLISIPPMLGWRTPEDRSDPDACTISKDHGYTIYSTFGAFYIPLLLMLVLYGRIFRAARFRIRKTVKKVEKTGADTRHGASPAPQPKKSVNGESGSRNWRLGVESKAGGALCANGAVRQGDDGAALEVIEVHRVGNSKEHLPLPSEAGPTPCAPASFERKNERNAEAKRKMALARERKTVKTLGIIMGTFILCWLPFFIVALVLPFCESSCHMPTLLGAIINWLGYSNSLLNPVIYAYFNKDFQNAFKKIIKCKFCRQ

hTAAR1 = target: T2, hTAAR1 (Homo sapiens, UniProt Q96RJ0); assay: G protein (mini-Gs) recruitment luminescence complementation assay, agonist mode; type: cell-based
T2 construct: expressed in transfected cells; host or cells: Expi293F
T2 sequence (Q96RJ0 1-339): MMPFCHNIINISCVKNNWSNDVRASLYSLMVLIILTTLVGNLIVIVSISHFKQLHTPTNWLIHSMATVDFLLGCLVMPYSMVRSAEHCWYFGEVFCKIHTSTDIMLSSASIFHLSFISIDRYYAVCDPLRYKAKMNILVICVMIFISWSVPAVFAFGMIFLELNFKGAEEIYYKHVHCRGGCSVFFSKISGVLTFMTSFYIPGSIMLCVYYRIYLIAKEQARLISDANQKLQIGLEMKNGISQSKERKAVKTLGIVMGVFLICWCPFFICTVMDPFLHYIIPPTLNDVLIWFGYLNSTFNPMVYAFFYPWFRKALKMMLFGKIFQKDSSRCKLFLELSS
Description: The 62 predicted ligands were purchased from commercial vendors and tested for activity at a concentration of 20 μM in a luminescence complementation–based assay measuring recruitment of mini-Gs to the human TAAR1 ([38]).
To monitor TAAR1 activation by compounds, we used our previously described system. […] Cells were then reseeded in solid white, 96-well plates (Corning) with 90 μl of cell suspension per well. Luminescence was read using a plate reader for 5 min (SPARK 10 M, Tecan) before the addition of compounds to ensure signal stability. Ten microliters of each compound diluted in DPBS was added, and luminescence from each well was read for 10 min, with 100-ms read time per well. The A2AR counter-screen was performed using the same protocol. In these experiments, the hTAAR1 was replaced by a C-terminally SmBiT-tagged hA2AR construct.

α2A receptor = target: T3, α2A receptor (Homo sapiens, UniProt P08913); assay: PRESTO-TANGO β-arrestin recruitment; type: cell-based; details: panel screen
T3 construct: TANGO fusion module (own knowledge, Kroeze et al.: C-terminal V2 tail, TEV site and tTA); 1000000068; host or cells: HTLA (HEK293-derived)
T3 sequence (P08913 1-465): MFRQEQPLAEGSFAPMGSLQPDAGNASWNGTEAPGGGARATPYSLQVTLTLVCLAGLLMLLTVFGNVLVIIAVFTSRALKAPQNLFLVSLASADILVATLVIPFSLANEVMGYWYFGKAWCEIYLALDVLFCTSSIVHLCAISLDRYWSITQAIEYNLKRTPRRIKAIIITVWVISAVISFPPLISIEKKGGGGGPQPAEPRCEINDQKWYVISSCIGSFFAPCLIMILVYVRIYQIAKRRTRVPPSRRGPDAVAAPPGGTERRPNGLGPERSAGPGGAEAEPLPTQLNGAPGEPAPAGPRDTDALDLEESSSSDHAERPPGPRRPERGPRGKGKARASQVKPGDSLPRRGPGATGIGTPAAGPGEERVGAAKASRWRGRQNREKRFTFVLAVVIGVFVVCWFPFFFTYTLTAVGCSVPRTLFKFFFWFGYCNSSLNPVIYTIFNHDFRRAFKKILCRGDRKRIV

5-HT1D receptor = target: T4, 5-HT1D receptor (Homo sapiens, UniProt P28221); assay: PRESTO-TANGO β-arrestin recruitment; type: cell-based
T4 construct: TANGO fusion module (own knowledge, Kroeze et al.: C-terminal V2 tail, TEV site and tTA); 1000000068; host or cells: HTLA (HEK293-derived)
Description: (§1) Assessment of receptor activation by compounds at all human aminergic receptors were carried out using a modified version of the PRESTO-TANGO method. […] The plate was spun down, and 5 μl of a 1:25 dilution (in DPBS) of polyethylenimine (PEI) derivative (Transporter 5, Polysciences) was added (1:4 cDNA to PEI ratio) and incubated for 20 min at room temperature (RT). […] Luminescence signal was detected using a plate-reader (SPARK, Tecan) with 100-ms integration time and a 100-ms delay between well reads.

M2 receptor = target: T5, M2 receptor (Homo sapiens, UniProt P08172); assay: PRESTO-TANGO β-arrestin recruitment; type: cell-based
T5 construct: TANGO fusion module (own knowledge, Kroeze et al.: C-terminal V2 tail, TEV site and tTA); 1000000068; host or cells: HTLA (HEK293-derived)
T5 sequence (P08172 1-466): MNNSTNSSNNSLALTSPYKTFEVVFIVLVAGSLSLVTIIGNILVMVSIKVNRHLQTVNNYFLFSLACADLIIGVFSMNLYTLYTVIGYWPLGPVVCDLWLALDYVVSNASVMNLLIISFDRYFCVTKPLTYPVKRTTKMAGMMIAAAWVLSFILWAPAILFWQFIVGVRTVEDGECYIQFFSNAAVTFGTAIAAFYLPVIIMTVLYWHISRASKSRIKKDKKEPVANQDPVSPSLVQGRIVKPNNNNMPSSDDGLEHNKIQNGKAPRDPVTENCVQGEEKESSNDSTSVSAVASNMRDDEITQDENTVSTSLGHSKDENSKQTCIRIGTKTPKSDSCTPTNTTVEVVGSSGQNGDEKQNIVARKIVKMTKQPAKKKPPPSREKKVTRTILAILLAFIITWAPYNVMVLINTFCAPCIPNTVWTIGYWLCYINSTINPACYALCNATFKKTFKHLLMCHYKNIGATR

H1 receptor = target: T6, H1 receptor (Homo sapiens, UniProt P35367); assay: PRESTO-TANGO β-arrestin recruitment; type: cell-based; details: panel screen, 10 μM; read-out: agonist activity, % of control
T6 construct: TANGO fusion module (own knowledge, Kroeze et al.: C-terminal V2 tail, TEV site and tTA); 1000000068; host or cells: HTLA (HEK293-derived)

D2 receptor = target: T7, D2 receptor (Homo sapiens, UniProt P14416); assay: cell-based; type: cell-based
T7 construct: TANGO fusion module (own knowledge, Kroeze et al.: C-terminal V2 tail, TEV site and tTA); 1000000068; host or cells: HTLA (HEK293-derived)
Description: as §1

TAAR1 = details: ref Zilberg et al. ([51]); cited from earlier work
WT and TAAR1-KO mice [1] = assay: Pre-pulse inhibition (PPI) behavioral assay; type: in vivo; details: compound 65 1 mg/kg, risperidone 0.2 mg/kg i.p.
Description: Measurements were performed using startle response chambers (San Diego Instruments, San Diego, CA, USA). Each chamber is sound-isolated and contains a Plexiglass animal enclosure attached to a platform and a loudspeaker that can produce both continuous white noise and acoustic pulses of varying intensities. The animal enclosure is large enough for the animal to turn around and make other movements to reduce restraint stress. Mouse startle responses to acoustic stimuli are transformed by a piezoelectric transducer under the platform into an analog signal. The transducers were calibrated before each experiment using a standardization unit (San Diego Instruments, San Diego, CA, USA), and the speakers were calibrated using a Type 2670 Microphone Preamplifier, a Type 4230 Sound Level Calibrator, and a Type 2610 Measuring Amplifier (Brüel & Kjær, Nærum, Denmark). To habituate the mice to the chambers, they were placed in the enclosure for 5 min, with 65-dB background white noise, on three different days before the start of experiments. PPI measurements were then conducted on each mouse on four occasions separated by 96 hours. The first occasion was a mock test session where all mice were injected with vehicle, serving to reduce the effect of novelty on subsequent sessions. The next three sessions were true test sessions with injection of either compound 65, risperidone, or vehicle. The R package agricolae was used to generate a randomized block design, randomizing treatment order across sex, genotype, and test session.
Animals were brought to the testing room for habituation 60 min before the starting of tests. Thirty minutes before PPI measurements, mice were injected with either compound 65 (1 mg/kg), risperidone (0.2 mg/kg), or vehicle intraperitoneally. Each test session started with a 5-min background noise (65-dB white noise) habituation period. The background noise continued throughout the test session. The habituation period was followed by four blocks of trials, with the first and last blocks consisting of five pulse-only trials (40-ms, 120-dB pulse). During block 2, five trial types were presented five times each in a pseudo-randomized order. The trial types included pulse only, no stimulus (NOSTIM), and three different pre-pulse trials in which 20 ms pre-pulses of different intensities (68, 71, or 77 dB) preceded the startle pulse (120 dB) by a 100-ms interval. Block 3 contained the same numbers and types of trials as block 2, but in a different pseudorandom order. […] PPI data are shown as PPI%, which was calculated as [1 − (pre-pulse trials/startle-only trials)] × 100. Mean PPI was calculated by adding the average PPI% for all pre-pulse intensities (3, 6, and 12 dB) and dividing it by the number (i.e., 3) of pre-pulse intensities.

WT and TAAR1-KO mice [2] = assay: Open-field test: baseline locomotion and MK-801-induced hyperlocomotion; type: in vivo; details: compound 65 1 mg/kg, risperidone 0.03 mg/kg
Description: To assess the influence of the compound on baseline locomotion and MK-801–induced hyperlocomotion, mice were subjected to open-field testing on four occasions separated by 96 hours. The first occasion was a mock test session where all mice were injected with vehicle only, serving to reduce the effect of novelty on subsequent sessions. The next three sessions were true test sessions with pretreatment of either compound 65, risperidone, or vehicle, followed by MK-801. The R package agricolae was used to generate a randomized block design, randomizing treatment order across sex, genotype, and test session. After injection with either compound 65 (1 mg/kg), risperidone (0.03 mg/kg), or vehicle intraperitoneally, mice were immediately placed in the open field and recorded for 15 min. They were then injected with MK-801 (0.35 mg/kg intraperitoneal) and recorded again for 60 min. The OFT arena measured 46 cm by 46 cm with gray floor and walls. The brightness at the center of each arena was 30 to 50 lux. The arenas were cleaned with 70% ethanol between each animal. Video from a camera mounted in the ceiling was analyzed using EthoVision XT11.5 (Noldus) software.

T7 sequence (P14416 whole entry, the tested form may be a part): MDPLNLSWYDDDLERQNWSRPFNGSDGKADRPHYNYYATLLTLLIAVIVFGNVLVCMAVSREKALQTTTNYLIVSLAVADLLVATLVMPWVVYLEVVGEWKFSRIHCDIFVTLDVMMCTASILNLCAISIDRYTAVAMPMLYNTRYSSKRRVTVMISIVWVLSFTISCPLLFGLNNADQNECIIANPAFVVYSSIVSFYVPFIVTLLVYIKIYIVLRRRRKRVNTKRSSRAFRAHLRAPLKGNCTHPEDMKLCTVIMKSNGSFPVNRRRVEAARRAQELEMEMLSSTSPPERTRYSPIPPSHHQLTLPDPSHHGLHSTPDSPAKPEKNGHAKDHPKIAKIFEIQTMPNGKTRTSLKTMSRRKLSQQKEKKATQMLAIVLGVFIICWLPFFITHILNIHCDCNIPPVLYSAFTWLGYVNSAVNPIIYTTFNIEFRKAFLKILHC
T4 sequence (P28221 whole entry, the tested form may be a part): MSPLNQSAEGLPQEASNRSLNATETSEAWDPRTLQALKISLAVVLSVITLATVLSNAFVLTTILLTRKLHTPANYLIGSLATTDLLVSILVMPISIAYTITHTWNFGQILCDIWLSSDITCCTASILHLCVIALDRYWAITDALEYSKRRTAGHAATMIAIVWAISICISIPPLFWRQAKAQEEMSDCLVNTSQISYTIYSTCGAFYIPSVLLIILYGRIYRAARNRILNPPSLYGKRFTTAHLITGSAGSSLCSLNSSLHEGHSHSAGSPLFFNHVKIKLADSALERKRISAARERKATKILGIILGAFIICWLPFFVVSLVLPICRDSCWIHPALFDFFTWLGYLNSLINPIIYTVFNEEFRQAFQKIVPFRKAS
T6 sequence (P35367 whole entry, the tested form may be a part): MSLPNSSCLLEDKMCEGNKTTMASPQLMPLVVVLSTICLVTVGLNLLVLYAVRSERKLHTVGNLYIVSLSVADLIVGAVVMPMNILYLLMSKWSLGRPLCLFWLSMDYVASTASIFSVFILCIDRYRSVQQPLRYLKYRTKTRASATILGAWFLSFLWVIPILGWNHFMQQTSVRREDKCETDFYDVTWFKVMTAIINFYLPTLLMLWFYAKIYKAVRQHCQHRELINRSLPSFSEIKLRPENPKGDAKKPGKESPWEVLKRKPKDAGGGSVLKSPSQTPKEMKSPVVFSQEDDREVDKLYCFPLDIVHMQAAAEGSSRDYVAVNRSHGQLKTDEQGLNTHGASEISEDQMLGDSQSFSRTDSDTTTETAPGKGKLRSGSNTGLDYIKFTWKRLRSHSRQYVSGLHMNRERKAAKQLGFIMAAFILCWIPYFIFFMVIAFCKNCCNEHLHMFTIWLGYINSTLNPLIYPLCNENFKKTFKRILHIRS

## C1=C(c2ccco2)CNCC1 [Compound 30]
5-HT1A receptor
  activation of 5-HT1A receptor: did not observe a considerable activation
hTAAR1; TAAR1
  agonist type: full agonist
hTAAR1; TAAR1, G protein recruitment assay, read-out: pEC50 (converted)
  EC50: 0.0316 µM
hTAAR1; TAAR1 G protein recruitment
  fold more potent than Ulotaront: > 25 fold
  fold more potent than the reference agonist β-PEA: ~ 10 fold
hTAAR1; relative to the effect of the reference agonist β-PEA, read-out: Emax
  Emax: 112%
α2A receptor
  agonism at the α2A receptor: agonism
5-HT1D receptor
  EC50: > 1 µM
  Emax: 52%
5-HT1D receptor; panel screen
  agonism at the 5-HT1D receptor: agonism
M2 receptor; concentration-response curves
  EC50: 10 µM
  Emax: 125%
M2 receptor; panel screen, 10 μM, read-out: agonist activity, % of control
  activity at 10 µM: 55%
H1 receptor
  activity at 10 µM: 70%
D2 receptor; concentration-response curves
  EC50: > 1 µM
  Emax: 54%
D2 receptor; panel screen
  agonism at the D2 receptor: agonism

## CN1CC2c3ccccc3Oc3ccc(Cl)cc3C2C1 (centres unmarked) [asenapine]
TAAR1
  TAAR1 agonism: potent TAAR1 agonist

## Cc1nc2n(c(=O)c1CCN1CCC(c3noc4cc(F)ccc34)CC1)CCCC2 [risperidone, reference compound]
WT and TAAR1-KO mice [1]; TAAR1-KO mice
  effect on PPI: increased PPI
WT and TAAR1-KO mice [1]; WT mice
  effect on PPI: general augmentation in PPI compared to the vehicle control
WT and TAAR1-KO mice [2]; TAAR1-KO mice
  effect on locomotion: significant reduction in locomotion
WT and TAAR1-KO mice [2]; WT mice, MK-801 0.35 mg/kg
  effect on MK-801–induced hyperlocomotion: significant decrease
WT and TAAR1-KO mice [2]; WT mice, versus vehicle
  effect on baseline locomotion: notable reduction
